Data as given in paper PMC12196321, “Discovery of Novel Inhibitors of Aspergillus fumigatus DHODH via Virtual Screening, MD Simulation, and In Vitro Activity Assay” (Molecules, 2025).

Target: T1, Aspergillus fumigatus dihydroorotate dehydrogenase (AfDHODH) (Aspergillus fumigatus, UniProt Q4X169)
T1 construct: gene AFUA_2G11010; residues 89–531 with an N-terminal His-tag
T1 sequence (Q4X169 89-531): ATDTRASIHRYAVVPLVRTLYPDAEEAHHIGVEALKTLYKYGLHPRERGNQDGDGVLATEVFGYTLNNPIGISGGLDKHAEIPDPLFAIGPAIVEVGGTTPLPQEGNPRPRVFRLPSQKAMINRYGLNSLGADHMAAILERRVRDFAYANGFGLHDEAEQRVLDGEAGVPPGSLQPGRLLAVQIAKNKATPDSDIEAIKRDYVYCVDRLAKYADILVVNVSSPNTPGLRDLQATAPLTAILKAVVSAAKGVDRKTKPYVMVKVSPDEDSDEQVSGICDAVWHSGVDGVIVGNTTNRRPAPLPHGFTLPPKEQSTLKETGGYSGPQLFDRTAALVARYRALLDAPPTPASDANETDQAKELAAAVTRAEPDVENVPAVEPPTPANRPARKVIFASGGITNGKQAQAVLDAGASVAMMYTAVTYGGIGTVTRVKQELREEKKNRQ
Assay: DCIP colorimetric enzyme assay (absorbance at […] nm)
Assay type: biochemical

Row | SMILES | IC50 [µM]
1 | COC(=O)c1c(NC(=S)NNC(=O)c2ccc(Cl)s2)sc(C(=O)N(C)C)c1C [CHEMBL1509241] | 16.9
2 | COC(=O)c1c(NC(=S)NNC(=O)c2ccc(Cl)s2)sc(C(=O)N(C)C)c1C [ZINC67300323] | 57.3
